The experiment addresses T1, hNLRP3 (Homo sapiens, UniProt Q96P20).
T1 construct: THP-1 cells were purchased from the American Type Culture Collection; host or cells: THP-1 cells, PMA-differentiated
The experiment can be described thus: IL-1β production in PMA-differentiated THP-1 cells stimulated with gramicidin. It counts as cell-based. To be noted: gramicidin 5 μM, IL-1β in supernatant, Table 2. In a few lines:
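THP-1 cells differentiated with PMA (10 μg/ml, 24 h, or 20 ng/ml, 16-18 h), replated in 2% FBS RPMI and preincubated with compound for 1 h before 5 μM gramicidin for 2 h. Supernatant IL-1β measured by ELISA (1% DMSO) or HTRF (0.38% DMSO).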

T1 sequence (Q96P20 whole entry): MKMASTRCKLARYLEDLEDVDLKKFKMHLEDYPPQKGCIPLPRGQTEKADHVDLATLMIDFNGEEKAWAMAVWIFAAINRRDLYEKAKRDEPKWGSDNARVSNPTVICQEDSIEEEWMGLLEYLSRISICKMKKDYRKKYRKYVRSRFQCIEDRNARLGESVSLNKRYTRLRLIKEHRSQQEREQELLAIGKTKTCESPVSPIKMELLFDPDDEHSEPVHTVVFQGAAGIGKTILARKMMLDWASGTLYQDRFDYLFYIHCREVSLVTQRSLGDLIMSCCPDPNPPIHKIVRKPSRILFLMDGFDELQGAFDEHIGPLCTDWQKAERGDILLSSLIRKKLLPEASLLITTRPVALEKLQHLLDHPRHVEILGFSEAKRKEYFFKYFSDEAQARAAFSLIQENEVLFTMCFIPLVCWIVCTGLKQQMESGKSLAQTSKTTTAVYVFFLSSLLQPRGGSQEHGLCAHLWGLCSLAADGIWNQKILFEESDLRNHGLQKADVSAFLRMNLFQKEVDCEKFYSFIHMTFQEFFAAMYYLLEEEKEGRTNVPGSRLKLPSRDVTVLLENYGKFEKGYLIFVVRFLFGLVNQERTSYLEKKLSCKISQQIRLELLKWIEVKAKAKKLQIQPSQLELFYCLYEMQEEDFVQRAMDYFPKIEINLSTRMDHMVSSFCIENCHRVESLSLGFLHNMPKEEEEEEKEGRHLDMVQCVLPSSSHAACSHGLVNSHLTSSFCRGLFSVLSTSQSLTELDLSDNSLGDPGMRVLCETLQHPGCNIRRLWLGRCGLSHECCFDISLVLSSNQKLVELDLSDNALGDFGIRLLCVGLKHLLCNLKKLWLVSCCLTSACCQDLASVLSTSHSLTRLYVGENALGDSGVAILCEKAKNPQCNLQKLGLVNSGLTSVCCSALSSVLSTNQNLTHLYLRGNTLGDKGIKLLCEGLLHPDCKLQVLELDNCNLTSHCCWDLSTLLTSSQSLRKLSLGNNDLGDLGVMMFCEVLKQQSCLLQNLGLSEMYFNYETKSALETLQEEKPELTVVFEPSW

For orientation: IC50 means the concentration at which inhibition is half-maximal. In the case of `CC(C)(O)c1cnc(S(=O)(=O)NC(=O)Nc2cccc3c2CCC3)s1` [Compound 190, N-(2,3-dihydro-1H-inden-4-ylcarbamoyl)-5-(2-hydroxypropan-2-yl)thiazole-2-sulfonamide], the IC50 was in the range of 1 to 5 µM.

Take `O=C(Nc1cccc2c1CCC2)NS(=O)(=O)c1cc(C2(O)CC2)co1` [Compound 192, N-(2,3-dihydro-1H-inden-4-ylcarbamoyl)-4-(1-hydroxycyclopropyl) furan-2-sulfonamide]: the IC50 lay within 1 to 5 µM.

`CC(C)c1cc(F)cc(C(C)C)c1NC(=O)NS(=O)(=O)c1ccc(C2(O)CC2)s1` [Compound 198, N-(4-fluoro-2,6-diisopropylphenylcarbamoyl)-5-(1-hydroxycyclopropyl) thiophene-2-sulfonamide] registered an IC50 below 1 µM.

`COc1ccc2c(c1NC(=O)NS(=O)(=O)c1ncc(C(C)(C)O)s1)CCC2` [Compound 182, 5-(2-hydroxypropan-2-yl)-N-(5-methoxy-2,3-dihydro-1H-inden-4-ylcarbamoyl)thiazole-2-sulfonamide] showed an IC50 of 1 to 5 µM.

`O=C(Nc1c2c(cc3c1CCC3)CCC2)NS(=O)(=O)c1cc(C2(O)CC2)co1` [Compound 247, 1-(1,2,3,5,6,7-hexahydro-s-indacen-4-yl)-3-[4-(1-hydroxycyclopropyl)furan-2-sulfonyl]urea] registered an IC50 below 1 µM.

In turn, `CC(C)(O)c1cnc(S(=O)(=O)NC(=O)Nc2c3c(cc4c2CCC4)CCC3)s1` [Compound 233, N-(1,2,3,5,6,7-hexahydros-indacen-4-ylcarbamoyl)-5-(2-hydroxypropan-2-yl)thiazole-2-sulfonamide] came in with an IC50 below 1 µM.

In turn, `CC(C)c1cc(F)cc(C(C)C)c1NC(=O)NS(=O)(=O)c1cc(C(C)(C)O)c(Cl)s1` [Compound 253, 5-chloro-N-(4-fluoro-2,6-diisopropylphenyl-carbamoyl)-4-(2-hydroxypropan-2-yl)thiophene-2-sulfonamide] displayed an IC50 below 1 µM.

Compound `CC(C)c1cccc(C(C)C)c1NC(=O)NS(=O)(=O)c1cnc(C(C)(C)O)s1` [Compound 270] displayed an IC50 of 1 to 5 µM.

For the compound `O=C(Nc1c2c(cc3c1CCC3)CCC2)NS(=O)(=O)c1ncc(C2(O)CCCC2)s1` [Compound 183], the IC50 is below 1 µM.

For `CC(C)c1cc(Cl)cc(C(C)C)c1NC(=O)NS(=O)(=O)c1cc(C2(O)CC2)co1` [Compound 236, N-(4-chloro-2,6-diisopropylphenyl-carbamoyl)-4-(1-hydroxycyclo-propyl)furan-2-sulfonamide], the IC50 was below 1 µM.

As to `CC(C)c1cc(F)cc(C(C)C)c1NC(=O)NS(=O)(=O)c1ncc(C(C)(C)O)s1` [Compound 139, N-(4-fluoro-2,6-diisopropylphenyl-carbamoyl)-5-(2-hydroxypropan-2-yl)thiazole-2-sulfonamide], the IC50 is below 1 µM.

The compound `CC(C)c1cccc(C(C)C)c1NC(=O)NS(=O)(=O)c1ccc(C2(O)CC2)s1` [Compound 201, N-(2,6-diisopropylphenylcarbamoyl)-5-(1-hydroxycyclopropyl) thiophene-2-sulfonamide] showed an IC50 of 1 to 5 µM.

Take `CC(C)c1ccc(Cl)c(C(C)C)c1NC(=O)NS(=O)(=O)c1cc(C(C)(C)O)c(Cl)s1` [Compound 252, 5-chloro-N-(3-chloro-2,6-diisopropylphenylcarbamoyl)-4-(2-hydroxypropan-2-yl)thiophene-2-sulfonamide]: the IC50 was in the range of 5 to 15 µM.

Turning to `CC(C)c1cccc(C(C)C)c1NC(=O)NS(=O)(=O)c1ncc(C(C)(C)O)s1` [Compound 227, N-(2,6-diisopropylphenyl-carbamoyl)-5-(2-hydroxypropan-2-yl)thiazole-2-sulfonamide], the IC50 was below 1 µM.

On to `CC(C)c1ccc(C#N)c(C(C)C)c1NC(=O)NS(=O)(=O)c1cc(C(C)(C)O)c(Cl)s1` [Compound 265, 5-chloro-N-(3-cyano-2,6-diisopropylphenylcarbamoyl)-4-(2-hydroxypropan-2-yl) thiophene-2-sulfonamide], for which the IC50 lay within 5 to 15 µM.

As to `Cc1nc(S(=O)(=O)NC(=O)Nc2c(C(C)C)ccc(Cl)c2C(C)C)sc1C(C)(C)O` [Compound 149, N-(3-chloro-2,6-diisopropylphenylcarbamoyl)-5-(2-hydroxypropan-2-yl)-4-methylthiazole-2-sulfonamide], the IC50 fell in the range of 15 to 35 µM.

Compound `O=C(Nc1c2c(cc3c1CCC3)CCC2)NS(=O)(=O)c1ncc(C2(O)CCC2)s1` [Compound 197, N-(1,2,3,5,6,7-hexahydros-indacen-4-ylcarbamoyl)-5-(1-hydroxycyclo-butyl)thiazole-2-sulfonamide] returned an IC50 below 1 µM.

The values above are taken from patent publication US11339136B2 (Novartis AG, priority 2016, dated 2022).
